Among the test systems are HOP-92 NSCLC; HL-60(TB) leukemia; MDA-MB-231 breast; SR leukemia; MOLT-4 leukemia; MALME-3M melanoma; SF-539 CNS; A498 renal; NCI-H23 lung; SK-MEL-28 melanoma.
Common to all, as to assay: NCI-60 cell line screen, 48 h

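Values below derive from 48-hour exposures of cells grown in 96-well plates, with endpoints linearly interpolated between the two concentrations bracketing the appropriate inhibition level. GI50 marks 50% less growth. TGI denotes the concentration required for complete inhibition of growth.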

With `Cn1c(=O)c(Oc2ccc(F)cc2F)cc2cnc(NC3CCS(=O)(=O)CC3)nc21`, the GI50 in the experiment on HOP-92 NSCLC was 5.23 µM; in the experiment on HL-60(TB) leukemia, > 25 µM; in the experiment with MDA-MB-231 breast it was > 22 µM; in the experiment on SR leukemia, > 25 µM; with MOLT-4 leukemia, > 25 µM; in the experiment with MALME-3M melanoma it was > 25 µM. In addition, the GI50 in the experiment on SF-539 CNS, in the experiment on A498 renal, with NCI-H23 lung and in the experiment on SK-MEL-28 melanoma was > 25 µM each time. Besides, the TGI in the experiment on HOP-92 NSCLC, with HL-60(TB) leukemia, with MDA-MB-231 breast, in the experiment on SR leukemia, with MOLT-4 leukemia and in the experiment on MALME-3M melanoma was > 25 µM each time. The TGI in the experiment with SF-539 CNS, in the experiment on A498 renal, in the experiment with NCI-H23 lung and with SK-MEL-28 melanoma was > 25 µM each time.

Consider `CCCCCCCCn1ccc2cc(NC(=O)Cn3cc(CN4CCCCC4)nn3)ccc21`, for which the GI50 with HOP-92 NSCLC is 0.601 µM; in the experiment on HL-60(TB) leukemia it was 1.98 µM; with MDA-MB-231 breast, 1.8 µM; in the experiment with SR leukemia, 1.67 µM; in the experiment with MOLT-4 leukemia it was 2.59 µM; with MALME-3M melanoma, 1.58 µM. Further, the GI50 in the experiment with SF-539 CNS is 1.81 µM; in the experiment on A498 renal, 5.05 µM; in the experiment on NCI-H23 lung, 2.35 µM; in the experiment with SK-MEL-28 melanoma, 1.75 µM. In addition, the TGI in the experiment with HOP-92 NSCLC was 2.21 µM; with HL-60(TB) leukemia it was 4.15 µM; in the experiment with MDA-MB-231 breast, 3.52 µM; with SR leukemia, > 100 µM; in the experiment with MOLT-4 leukemia, 7.23 µM; with MALME-3M melanoma, 3 µM. Also, the TGI in the experiment on SF-539 CNS was 3.26 µM; in the experiment with A498 renal it was 19.5 µM; in the experiment on NCI-H23 lung it was 6.34 µM; in the experiment with SK-MEL-28 melanoma, 3.29 µM.

Take `COc1ccc(C2=NN(C(=O)c3cc(OC)c(OC)c(OC)c3)C(c3ccc(N(C)C)cc3)C2)cc1` (configuration not stated): the GI50 in the experiment with HOP-92 NSCLC was 0.886 µM; with HL-60(TB) leukemia, 0.499 µM; with MDA-MB-231 breast, 1.72 µM; in the experiment with SR leukemia, 0.426 µM; in the experiment on MOLT-4 leukemia, 3.87 µM; in the experiment on MALME-3M melanoma, 41.6 µM. Besides, the GI50 with SF-539 CNS is 0.294 µM; in the experiment on A498 renal, 0.337 µM; with NCI-H23 lung, 1 µM; in the experiment on SK-MEL-28 melanoma, 0.511 µM. In addition, the TGI in the experiment on HOP-92 NSCLC is > 100 µM; in the experiment on HL-60(TB) leukemia, 2.87 µM; with MDA-MB-231 breast it was 8.75 µM; in the experiment on MOLT-4 leukemia, > 100 µM; with MALME-3M melanoma, > 100 µM; in the experiment with SF-539 CNS it was 1.52 µM. The results for the TGI in the experiment on A498 renal, in the experiment on NCI-H23 lung and in the experiment on SK-MEL-28 melanoma were 9.23 µM, > 100 µM and > 59.5 µM, respectively.

With `CC(=O)OC12COC1CC(O)C1(C)C(=O)C(O)C3=C(C)C(O)CC(O)(C(OC(=O)c4ccccc4)C21)C3(C)C` (configuration not stated), the TGI in the experiment with HOP-92 NSCLC was > 100 µM; in the experiment with HL-60(TB) leukemia, 24.3 µM; in the experiment with MDA-MB-231 breast it was > 100 µM; in the experiment with SR leukemia it was > 100 µM; with MOLT-4 leukemia it was > 100 µM; in the experiment on MALME-3M melanoma, > 100 µM. The TGI was 5.51 µM in the experiment on SF-539 CNS, > 100 µM in the experiment with A498 renal, > 100 µM with NCI-H23 lung and > 100 µM in the experiment on SK-MEL-28 melanoma.

For the molecule `N#C[Se]CCCNS(=O)(=O)C1CC2C=CC1C2` (configuration not stated), the GI50 is 1.17 µM in the experiment with HOP-92 NSCLC; 0.326 µM in the experiment with HL-60(TB) leukemia; 1.23 µM in the experiment on MDA-MB-231 breast; 0.57 µM in the experiment on SR leukemia; 0.409 µM in the experiment on MOLT-4 leukemia; 0.416 µM in the experiment with MALME-3M melanoma. Moreover, the GI50 in the experiment with SF-539 CNS was 0.413 µM; with A498 renal, 0.652 µM; in the experiment on NCI-H23 lung, 1.16 µM; in the experiment on SK-MEL-28 melanoma, 0.486 µM. Moreover, the TGI with HOP-92 NSCLC was 2.7 µM; with HL-60(TB) leukemia it was 1.31 µM; with MDA-MB-231 breast it was 3.55 µM; with SR leukemia it was > 100 µM; with MOLT-4 leukemia, 22.6 µM; in the experiment with MALME-3M melanoma, 1.87 µM. Also, the TGI in the experiment with SF-539 CNS was found to be 1.56 µM; in the experiment on A498 renal it was 2.09 µM; in the experiment with NCI-H23 lung, 4.63 µM; with SK-MEL-28 melanoma, 2.77 µM.

On to `O=C(O)c1ccc(C(=O)O)c(C(=O)Nc2ccc3c(c2)C(=O)c2ccccc2-3)c1`, for which the TGI in the experiment on HOP-92 NSCLC, with HL-60(TB) leukemia, in the experiment on MDA-MB-231 breast, with SR leukemia, in the experiment on MOLT-4 leukemia and in the experiment on MALME-3M melanoma was > 100 µM each time. Moreover, the TGI with SF-539 CNS, in the experiment on A498 renal, in the experiment on NCI-H23 lung and with SK-MEL-28 melanoma was > 100 µM throughout.

Regarding `O=C1c2cccc(NCCN=Cc3ccccc3O)c2C(=O)c2c(NCCN=Cc3ccccc3O)cccc21`, the GI50 is 0.584 µM with HOP-92 NSCLC; 1.09 µM in the experiment on HL-60(TB) leukemia; 0.489 µM with MDA-MB-231 breast; 0.363 µM in the experiment with SR leukemia; 0.353 µM with MOLT-4 leukemia; 1.01 µM in the experiment with MALME-3M melanoma. Moreover, the GI50 was 1.48 µM in the experiment on SF-539 CNS, 1.11 µM with A498 renal, 1.01 µM in the experiment with NCI-H23 lung and 1.54 µM in the experiment with SK-MEL-28 melanoma. The TGI was determined as 2.49 µM in the experiment with HOP-92 NSCLC; 3.4 µM with HL-60(TB) leukemia; 2.28 µM with MDA-MB-231 breast; 1.56 µM in the experiment with MOLT-4 leukemia; 2.86 µM in the experiment with MALME-3M melanoma; 4.57 µM in the experiment with SF-539 CNS. For the same molecule, the TGI with A498 renal came to 2.6 µM; with NCI-H23 lung, 3.2 µM; in the experiment on SK-MEL-28 melanoma, 3.37 µM.

With `O=C(Nc1n[nH]c2nnc(-c3cccnc3)cc12)C1CC1`, the GI50 is > 25 µM in the experiment on HOP-92 NSCLC; > 13.6 µM with HL-60(TB) leukemia; 6.23 µM in the experiment on SR leukemia; 4.88 µM in the experiment with MOLT-4 leukemia; > 25 µM in the experiment with MALME-3M melanoma; 2.79 µM in the experiment with SF-539 CNS. The GI50 is 0.051 µM with A498 renal, > 15.9 µM in the experiment on NCI-H23 lung and > 16.9 µM in the experiment on SK-MEL-28 melanoma. In addition, the TGI was > 25 µM in the experiment with HOP-92 NSCLC; > 22.6 µM in the experiment with HL-60(TB) leukemia; > 25 µM in the experiment on MDA-MB-231 breast; > 25 µM in the experiment with SR leukemia; > 25 µM in the experiment on MOLT-4 leukemia; > 25 µM with MALME-3M melanoma. The TGI is > 20.8 µM with SF-539 CNS, 0.17 µM in the experiment on A498 renal, > 25 µM with NCI-H23 lung and > 25 µM with SK-MEL-28 melanoma.

These data come from PubChem BioAssay (NCI).
